In patent publication US6372884B1, “Biologically active compounds and methods of constructing and using the same” (priority 1987, dated 2002):
Ends that are not written are not given here.

Assays:
[1] = system: reovirus type 3 receptor on R1.1 cells; assay: Down-modulation of reovirus type 3 receptor, flow cytometry with 87.92.6; type: cell-based, murine; conditions: for level of expression of the reovirus type 3 receptor: 1 hour at 37° C., up to 500 μg/ml peptide, FIGS. 5A-D; for reovirus type 3 receptor expression (decrease in mean channel fluorescence): peptides 100 μg/ml, three experiments, FIG. 6
L cells = assay: Inhibition of L cell DNA synthesis (tritiated thymidine); type: cell-based, murine; conditions: tritiated thymidine incorporation after 24 hours, FIGS. 3 and 4
Procedure: Reovirus type 3 inhibits host cell DNA synthesis upon receptor perturbation. This effect is not due to infection of cells as replication defective reovirus type 3 particles retain this property. L cells were cultured at 5 ×10^4 cells per well of 96 well microtiter plates in 100 μl media for 24 hours. Reovirus type 3 particles (A) were added and incubated for an additional 24 hours prior to the addition of tritiated thymidine. Purified monoclonal antibodies 87.92.6 or HO 22.1 (B) were added for 1 hour at 37° C., then the culture media removed and replaced with 100 μl fresh media for 24 hours, prior to the addition of tritiated thymidine. The cells were incubated for an additional 4-6 hours and counts per minute (CPM) incorporated were determined.
87.92.6 is effective only as a native antibody while monomeric Fab fragments have no effect. VL peptide was synthesized with an additional amino terminal cysteine residue (VLSH) to form a dimeric peptide. VLSH peptide was dimerized by stirring a 5 mg/ml solution in 0.1 M ammonium bicarbonate overnight at 23° C. exposed to air. The peptides were then lyophilized. Dimerization was confirmed by Ellman determination according to the procedure of Ellman, G. L. Arch. […] Tritiated thymidine was added for an additional 4-6 hours, and counts per minute (CPM) incorporated was determined. Per cent inhibition was determined by the formula: [formula]

[2] = system: C3H female mouse spleenocytes; assay: Lymphocyte proliferation with or without concanavalin A; type: cell-based; conditions: for inhibition of spontaneous lymphocyte proliferation: absence of con A, FIG. 7A; for inhibition of con A induced lymphocyte proliferation: presence of con A, FIGS. 7B, 8A, 8B; for biologic activity compared with VL peptide: summary statement in the discussion
[3] = system: Thy 1.2 molecules on R1.1 cells; assay: Expression of Thy 1.2 molecules, flow cytometry with HO 13.4; type: cell-based, murine; conditions: for expression of Thy 1.2 molecules: 1 hour at 37° C., up to 500 μg/ml peptide, FIGS. 5A-D
[4] = Rate of loss of sulfhydryls on air oxidation (Ellman determination); type: physicochemical; conditions: 2 mg/ml in 0.1 M NaHCO3, 37° C., exposed to air, FIG. 23
[5] = Size-exclusion chromatography of oxidized peptides (Sephadex G-10); type: physicochemical; conditions: reduced versus non-reduced peptides
monoclonal antibody 9BG5 = assay: Inhibition of binding of radioiodinated reovirus type 3 particles to 9BG5 coated wells; set-up: species or system mouse; conditions: for binding to neutralizing monoclonal antibody 9BG5, variant peptide compared with VL peptide: relative to VL peptide
Procedure: The wells of microtiter plates were coated with neutralizing anti-reovirus type 3 monoclonal antibody 9BG5 or irrelevant class matched monoclonal A11 by adsorption to staphylococcal protein A (SPA). SPA (sigma Chemical Co., St. Louis, Mo.) was diluted to 5 μg/ml in 0.1 M NaHCO3 pH 9.6 and 50 μl/well dispensed into 96 well polystyrene plates. Following overnight incubation at 4° C., the. wells were decanted, washed three times in PBS, and blocked with 2% BSA in PBS with 0.1% NaN3 for one hour at 37° C. The wells were decanted, washed three times in PBS and monoclonal antibody 9BG5 diluted to 10 μg/ml in 1% BSA in PBS with 0.1% NaN3 was added (50 μl/well) for 1-3 hours at 37° C. […] The wells were decanted and washed three times in PBS. Competitors were added at the concentrations noted (100 μl/well) diluted in 0.5% BSA in 5 mM phosphate buffer with 0.45% NaCl and preincubated for 45-60 minutes at 23° C. […] Following preincubation with inhibitors, radioiodinated reovirus type 3 particles diluted in 1% BSA in PBS with 0.1% NaN3 were added (5-10×10^5 CPM per well), and the incubation continued for 45 minutes. Wells were decanted, washed 8-10 times with PBS and the CPM bound determined. […] As shown in FIGS. 10A-C, 6,700 CPM were bound to 9BG5 coated wells and 500 CPM were bound to control (A11 ) coated wells in the absence of inhibitors. The mean ± standard deviation of binding inhibition (Determined as noted for FIG. 9) of replicate wells is shown. Control peptide B was used in this study. The competitor peptides in FIGS. 15A and 15B are those described herein. Competitor peptide VLA6 is identical to VL except that alanine is substituted for asparagine at position 6.

[6] = system: reovirus type 3 receptor on L cells; assay: Inhibition of binding of radioiodinated reovirus particles to L cells; set-up: species or system murine; conditions: for binding to the reovirus type 3 receptor compared with VL peptide: summary statement in the discussion
[7] = system: neutralizing monoclonal antibody 9BG5; type: binding, mouse
reovirus type 1 [8] = assay: Delayed type hypersensitivity (footpad swelling), reovirus type 1; type: in vivo, mice; conditions: footpad challenge with virus
Procedure: (§1) FIG. 17 illustrates data for mice immunized with the reovirus types noted by injection of 10^7 PFU subcutaneously, or with the peptides noted at a dose of 100 μg split into two injections subcutaneously; one week later, mice were challenged with virus or peptides in the footpads; footpad swelling was determined as indicated in the following description 48 hours after challenge; the mean +SEM for groups of mice is shown.
(§2) For the study of DTH response, groups of mice were inoculated with either synthetic peptide or live reovirus type 3 subcutaneously (s.c.) in two separate sites on the dorsal flanks of the animal (over each hind limb); 50 μg of a synthetic peptide or 10^7 viral particles/0.2 ml were given in separate injections of 0.1 ml vol. Six days later, animals were challenged in the left footpad with 3×10^7 viral particles suspended in saline containing 2% gelatin (30 μl). Footpad swelling was recorded 24 hr later in a blind fashion (Greene, M. I. and Weiner, H. L., J. Immunol. 125:283-287, 1980). Four animals per group were studied, and the magnitude of the response was determined by comparing the challenged left footpad to the untreated right footpad.

reovirus type 3 [9] = assay: Delayed type hypersensitivity (footpad swelling), reovirus type 3; type: in vivo, mice
Procedure: as §1, §2

[10] = system: reovirus type 3 receptor (Reo3R); assay: Flow cytometry: inhibition of 87.92.6 binding to cells; set-up: species or system murine; conditions: for inhibition of binding of 87.92.6 to murine L cells / inhibition of binding of 87.92.6 to R1.1 thymoma cells: FIG. 29; for inhibition of binding of 87.92.6 to R1.1 thymoma cells: R1.1 cells
Procedure: The ability of peptides to inhibit antibody binding to cells was determined by preincubation of the cells with varying amounts of inhibitor (in 100 μl dH2O) for between 30 minutes and 1 hour at 23° C. Cells (either L cells or R1.1 cells) were washed in 1% BSA/PBS/0.1% NaN3, and resuspended at 10^7/ml. 100 μl of cells were then added in 1% BSA/PBS/0.1% NaN3, and the incubation continued for 20-30 minutes. Antibodies (5 or 10 μl were added for an additional 20 minutes at 23° C. Ice cold 1% BSA/PBS/0.1% NaN3, was added, the cells centrifuged and washed prior to counterstaining with a 1:100 dilution of FITC goat anti-mouse Ig (Fisher Scientific) in 1% BSA/PBS/0.1% NaN3. The cells were washed twice and fluorescence intensity determined. Inhibition of binding was calculated as noted above with mean channel number utilized in place of CPM.
To assess the affinity of the cyclic peptides for the reovirus type 3 receptor (Reo3R), they were utilized in a series of assays to inhibit binding of 87.92.6 or control antibodies to specific receptors. […] The inhibition by VLC9C16 peptide was specific as binding of isotype matched monoclonal H013.4 to Thy2 molecules was not inhibited by VLC9C16 peptide (FIG. 30). Thus, VLC9C16 peptide is a specific Reo3R ligand with enhanced affinity compared with its linear analog.

reovirus type 3 [11] = system: reovirus type 3; set-up: species or system Balb/c mice; conditions: mouse, in vivo
reovirus type 1 [12] = system: reovirus type 1; set-up: species or system Balb/c mice; conditions: mouse, in vivo
reovirus type 1 [13] = system: reovirus type 1; set-up: species or system Balb/c mice; conditions: mouse, in vivo; remark: listed apart in the source
reovirus type 3 [14] = system: reovirus type 3; set-up: species or system Balb/c mice; conditions: mouse, in vivo; remark: listed apart in the source
9B.G5 = assay: Competitive RIA: inhibition of 9B.G5 - 87.92.6 interaction; type: binding; conditions: liquid phase assay, FIGS. 25 and 26

Cys-Lys-Pro-Gly-Lys-Thr-Asn-Lys-Leu-Leu-Ile-Tyr-Ser-Gly-Ser-Thr-Leu-Gln (CKPGKTNKLLIYSGSTLQ; also: dimeric) [VLSH peptide]
level of expression of the reovirus type 3 receptor [1]: specifically down-modulates
reovirus type 3 receptor expression (decrease in mean channel fluorescence) [1]: specifically down-modulated
inhibition of DNA synthesis by L cells (L cells): marked inhibition
inhibition of spontaneous lymphocyte proliferation [2]: markedly inhibited
expression of Thy 1.2 molecules [3]: does not effect
expression of Thy 1.2 molecules (decrease in mean channel fluorescence) ([3]; peptides 100 μg/ml, FIG. 6): without effecting

KPGKTNKCLIYSGSTCQ (cysteine pairing not given here) [VLC8C16 peptide]
rate of loss of sulfhydryls [4]: most rapid loss of sulfhydryls
molecular form following oxidation by size-exclusion chromatography [5]: remained chiefly as monomers

KPGKTNKLLCYSGSTCQ (cysteine pairing not given here) [VLC10C16 peptide]
rate of loss of sulfhydryls [4]: more slowly
molecular form following oxidation by size-exclusion chromatography [5]: migrated more rapidly

KPGKTNKLLIYAGSTLQ [VLA12]
binding to neutralizing monoclonal antibody 9BG5, variant peptide compared with VL peptide (monoclonal antibody 9BG5): reduced binding to neutralizing monoclonal antibody
inhibition of con A induced lymphocyte proliferation [2]: attenuated
biologic activity compared with VL peptide [2]: reduced biologic activity
binding to the reovirus type 3 receptor compared with VL peptide [6]: reduced binding to the reovirus type 3 receptor

KPGKTNKLLIYSASTLQ [VLA13]
binding to neutralizing monoclonal antibody 9BG5, variant peptide compared with VL peptide (monoclonal antibody 9BG5): increased binding
inhibition of con A induced lymphocyte proliferation [2]: increased effect

KPGKTNKLLIYSGSALQ [VLA15]
binding to neutralizing monoclonal antibody 9BG5, variant peptide compared with VL peptide (monoclonal antibody 9BG5): increased binding to neutralizing monoclonal antibody
inhibition of con A induced lymphocyte proliferation [2]: attenuated
biologic activity compared with VL peptide [2]: decreased biological activity
binding to the reovirus type 3 receptor compared with VL peptide [6]: decreased binding to the reovirus type 3 receptor

KPGKTNKLLIYSGSTLQ [VL peptide, amino acids 39-55 of the light chain variable region of 87.92.6]
specific binding of 9BG5 to peptide coated wells [7]: small amount of binding
DTH response to reovirus type 1 after immunization with peptide (reovirus type 1 [8]): did not demonstrate significant DTH responses
reovirus type 3 receptor expression (decrease in mean channel fluorescence) [1]: no effect
inhibition of DNA synthesis by L cells (L cells): no effect
inhibition of binding of reovirus type 3 particles to 9BG5 (monoclonal antibody 9BG5; FIGS. 10A-C): inhibits binding
DTH response to reovirus type 3 after immunization with peptide (reovirus type 3 [9]; footpad challenge with virus, FIGS. 15A and 15B): significant DTH responses
DTH to the peptide in animals primed with type 3 virus (reovirus type 3 [9]; priming with type 3 virus, challenge with peptide): significant DTH
inhibition of spontaneous lymphocyte proliferation [2]: no significant effect
inhibition of binding of 87.92.6 to murine L cells [10]: less effective competitor
inhibition of binding of 87.92.6 to R1.1 thymoma cells [10]: ineffectual
inhibition of binding of variant K to L cells ([6]; FIGS. 11A and 11B): inhibits binding
inhibition of binding of reovirus type 3 to L cells ([6]; FIGS. 11A-D): inhibits binding
inhibition of binding of reovirus type 1 to cells ([6]; reovirus type 1 utilizes a distinct receptor): not inhibited

KSGNASTPQQLQNLTLDIRQR [control peptide, control peptide, unrelated to this system, reference compound]
binding of immune serum to type 3 virus coated plates (reovirus type 3 [11]): bound poorly
specific binding of 9BG5 to peptide coated wells [7]: No significant binding
neutralization of L-cell lysis by reovirus type 1 by immune serum (reovirus type 1 [12]): no effect
binding of immune serum to type 1 virus coated plates (reovirus type 1 [13]): bound poorly
neutralization of L-cell lysis by reovirus type 3 by immune serum (reovirus type 3 [14]): no effect

QGLEWIGRIDPANG [VH peptide, amino acids 43-56 of the heavy chain variable region of 87.92.6 including CDR II]
specific binding of 9BG5 to peptide coated wells [7]: only achieved background levels
level of expression of the reovirus type 3 receptor [1]: does not effect
inhibition of 9B.G5 - 87.92.6 interaction (9B.G5): able to inhibit
interaction with the reovirus type 3 receptor (Reo3R) [10]: does not significantly interact
inhibition of binding of 87.92.6 to murine L cells [10]: no effect
inhibition of binding of 87.92.6 to R1.1 thymoma cells [10]: no effect
expression of Thy 1.2 molecules [3]: does not effect
